Source: US20100105111A1, “METHOD FOR PRODUCTION OF OPTICALLY ACTIVE AMINO ACID” (Mitsubishi Gas Chemical Company, Inc., priority 2007, published 2010)

What was measured:
[1] = biological target: D-aminopeptidase derived from Ochrobactrum anthropi (Brucella anthropi, UniProt Q9ZBA9); conditions: activity for D-2-aminobutyric acid amide is 100; cited from earlier work
[2] = system: L-amino acid amidase derived from Brevundimonas diminuta; conditions: activity for L-2-aminobutyric acid amide is 100; cited from earlier work
[3] = system: enzyme selectively converting the L-amino acid amide into the L-amino acid, Xanthobacter flavus; conditions: activity for L-2-aminobutyric acid amide is 100; cited from earlier work
[4] = system: nitrile hydratase derived from Rhodococcus opacus 71D; experiment: Substrate specificity of the purified enzyme from Rhodococcus opacus 71D (aminonitrile to amino acid amide, HPLC); conditions: for Relative activity for each substrate: enzymatic properties, activity for 2-aminobutyronitrile is 100; for Relative activity: 30° C., 0.1 M potassium phosphate buffer pH 7.0, activity for 2-aminobutyronitrile = 100
[5] = biological target: T1, aminocaprolactam racemase derived from Achromobacter obae (Achromobacter obae, UniProt Q7M181); conditions: activity for 2-aminobutyric acid amide is 100; cited from earlier work
T1 sequence (Q7M181 1-436): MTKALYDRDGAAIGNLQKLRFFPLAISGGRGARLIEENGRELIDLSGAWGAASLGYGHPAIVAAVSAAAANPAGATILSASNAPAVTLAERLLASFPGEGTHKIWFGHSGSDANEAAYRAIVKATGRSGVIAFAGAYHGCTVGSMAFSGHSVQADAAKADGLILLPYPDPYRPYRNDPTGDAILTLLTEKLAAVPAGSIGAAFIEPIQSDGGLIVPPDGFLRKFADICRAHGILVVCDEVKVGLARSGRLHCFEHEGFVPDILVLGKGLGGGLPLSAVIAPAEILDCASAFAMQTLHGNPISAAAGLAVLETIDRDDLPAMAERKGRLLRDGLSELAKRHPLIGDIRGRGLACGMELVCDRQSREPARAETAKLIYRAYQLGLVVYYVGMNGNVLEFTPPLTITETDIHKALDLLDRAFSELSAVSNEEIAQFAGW

Chain of D-aminopeptidase derived from Ochrobactrum anthropi (Q9ZBA9 whole entry, looked up): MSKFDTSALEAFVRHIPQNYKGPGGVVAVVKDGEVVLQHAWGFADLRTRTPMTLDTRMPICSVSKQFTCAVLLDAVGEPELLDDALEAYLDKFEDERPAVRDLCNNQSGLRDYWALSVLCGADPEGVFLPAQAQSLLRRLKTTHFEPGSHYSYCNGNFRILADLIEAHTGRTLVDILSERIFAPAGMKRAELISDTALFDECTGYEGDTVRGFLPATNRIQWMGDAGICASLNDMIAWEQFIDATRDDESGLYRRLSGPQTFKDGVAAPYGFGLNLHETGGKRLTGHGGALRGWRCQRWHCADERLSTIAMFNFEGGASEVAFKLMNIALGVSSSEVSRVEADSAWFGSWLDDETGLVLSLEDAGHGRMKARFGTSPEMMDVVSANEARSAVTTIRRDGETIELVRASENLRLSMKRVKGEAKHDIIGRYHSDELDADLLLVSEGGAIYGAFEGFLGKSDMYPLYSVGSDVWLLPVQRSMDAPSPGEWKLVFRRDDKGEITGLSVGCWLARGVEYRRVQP

In the case of `NC(=O)[C@H](N)CO` [D-serinamide], the “Relative activity for each substrate” value [1] is listed as 97.
In the case of `C[C@@H](N)C(N)=O` [D-alaninamide], the “Relative activity for each substrate” value [1] is given as 333.
In the case of `CCC[C@@H](N)C(N)=O` [D-norvalinamide], the “Relative activity for each substrate” value [1] is listed as 6.
For `CC(C)[C@H](N)C(N)=O` [L-valinamide], the “Relative activity for each substrate” value [2] is listed as 17.7 and the “Relative activity for each substrate” value [3] is listed as 65.
With `CC(C)(C)C(N)C#N` (stereo not drawn) [t-leuicinonitrile] the “Relative activity for each substrate” value [4] was 1.80 and the Relative activity ([4]; substrate 20 mM) was 1.8.
In the case of `C[C@@H](O)[C@H](N)C(N)=O` [L-threoninamide], the “Relative activity for each substrate” value [5] is given as 63 and the “Relative activity for each substrate” value [2] is given as 14.6.
In the case of `CC(C)[C@H](N)C#N` [Valinonitrile], the “Relative activity for each substrate” value [4] is reported as 15.1 and the Relative activity ([4]; substrate 20 mM) is reported as 15.1.
In the case of `CC(N)C#N` (stereo not drawn) [Alaninonitrile], the “Relative activity for each substrate” value [4] is reported as 77 and the Relative activity ([4]; substrate 20 mM) is reported as 77.0.
For `CC[C@H](C)[C@H](N)C(N)=O` [L-isoleuicinamide], the “Relative activity for each substrate” value [2] is given as 30.2.
For `NC(=O)[C@@H](N)CO` [L-serinamide], the “Relative activity for each substrate” value [5] is listed as 17 and the “Relative activity for each substrate” value [2] is listed as 2.9.
For `CSCC[C@H](N)C(N)=O` [L-methioninamide], the “Relative activity for each substrate” value [5] is given as 35 and the “Relative activity for each substrate” value [2] is given as 85.4.
For `CC(C)C[C@H](N)C(N)=O` [L-leuicinamide], the “Relative activity for each substrate” value [5] is listed as 48 and the “Relative activity for each substrate” value [2] is listed as 92.7.
For `NC(=O)[C@@H](N)c1ccccc1` [L-phenylglycinamide], the “Relative activity for each substrate” value [3] is listed as 113.
In the case of `CC[C@H](N)C(N)=O` [L-2-aminobutyric acid amide], the “Relative activity for each substrate” value [2] is given as 100 and the “Relative activity for each substrate” value [3] is given as 100.
In the case of `CC[C@@H](N)C(N)=O` [D-2-aminobutyric acid amide], the “Relative activity for each substrate” value [1] is listed as 100.
In the case of `NC(=O)[C@@H](N)Cc1ccccc1` [L-phenylalaninamide], the “Relative activity for each substrate” value [5] is listed as 2, the “Relative activity for each substrate” value [2] is listed as 104 and the “Relative activity for each substrate” value [3] is listed as 111.
For `CCCC[C@H](N)C(N)=O` [L-norleuicinamide], the “Relative activity for each substrate” value [5] is listed as 56.
In the case of `C[C@H](O)[C@@H](N)C(N)=O` [D-threoninamide], the “Relative activity for each substrate” value [1] is given as 30.
For `N#C[C@@H](N)Cc1ccccc1` [Phenylalaninonitrile], the “Relative activity for each substrate” value [4] was 42.9 and the Relative activity ([4]; substrate concentration 10 mM) was 42.9.
For `CSCC[C@@H](N)C(N)=O` [D-methioninamide], the “Relative activity for each substrate” value [1] is listed as 6.7.
In the case of `CC(C)C[C@H](N)C#N` [leucinonitrile], the “Relative activity for each substrate” value [4] is reported as 11.8.
In the case of `CC(C)(C)[C@H](N)C(N)=O` [L-t-leuicinamide], the “Relative activity for each substrate” value [2] is given as 0.2 and the “Relative activity for each substrate” value [3] is given as 8.4.
For `CCC[C@H](N)C(N)=O` [L-norvalinamide], the “Relative activity for each substrate” value [5] is listed as 63.
For `C[C@H](N)C(N)=O` [L-alaninamide], the “Relative activity for each substrate” value [5] is given as 78 and the “Relative activity for each substrate” value [2] is given as 3.4.
For `CCC(N)C(N)=O` (stereo not drawn) [2-aminobutyric acid amide], the “Relative activity for each substrate” value [5] is given as 100.
In the case of `CCCC[C@@H](N)C(N)=O` [D-norleuicinamide], the “Relative activity for each substrate” value [1] is given as 2.7.
For `N#CC(N)c1ccccc1` (stereo not drawn) [Phenylglycinonitirle], the “Relative activity for each substrate” value [4] was 177 and the Relative activity ([4]; substrate 20 mM) was 177.
With `CCC(N)C#N` (stereo not drawn) [2-aminobutyronitrile] the “Relative activity for each substrate” value [4] was 100 and the Relative activity ([4]; substrate 20 mM) was 100.
In the case of `NC(=O)[C@H](N)c1ccccc1` [D-phenylglycinamide], the “Relative activity for each substrate” value [1] is listed as 2.3.
